We go through 52 compounds from PubChem BioAssay AID1996.

Values after ≈ are worked out from the molar mass of the structure shown. Bounds are passed on as bounds.

The conditions of the series: buffer; pH 7.4; 200.0 µM.
The kinetic solubility is solubility judged after dilution from a stock solution rather than from solid. `CC(=O)NC(CC(=O)OCC(=O)Nc1cc(S(=O)(=O)N2CCCCC2)ccc1C)c1ccccc1` (configuration not stated) displayed a kinetic solubility of over 75.2 µg/mL.

The compound `CCCOc1ccc(C(=O)Nc2ccc3c(c2)OCCO3)cc1` came in with a solubility (kinetic) of 1 µg/mL (≈ 3.19 µM).

Take `Cc1c(C(=O)N2CCC2)oc2c(F)cccc12`: the solubility (kinetic) is 30.3 µg/mL (≈ 130 µM).

For the compound `COC(=O)CC(N)c1ccc(Br)cc1.Cl` (configuration not stated), the solubility (kinetic) was over 44.2 µg/mL.

In turn, `COc1ccccc1/C=C/C(=O)NC1CC2CCC1C2` (configuration not stated) displayed a solubility (kinetic) of 2 µg/mL (≈ 7.37 µM).

Regarding `CCCCn1c2c(c(=N)c3ccccc31)CCC2.I`, the kinetic solubility is over 55.2 µg/mL.

In turn, `C[C@@H](NCCc1ccc(O)cc1)[C@@H](O)c1ccc(O)cc1.Cl` displayed a solubility (kinetic) of over 48.6 µg/mL.

As for `CCOC(=O)c1c(C)noc1-c1ccco1`, the solubility (kinetic) is 7.5 µg/mL (≈ 33.9 µM).

Compound `Cc1ccc(C(=O)Nc2cccc(NC(=O)c3ccc(C)o3)n2)o1` gave a solubility (kinetic) of 4 µg/mL (≈ 12.3 µM).

On to `COc1ccc(NC(=O)c2ccccc2Oc2ccccc2)c(OC)c1`, for which the kinetic solubility was under 0.7 µg/mL.

With `CCOC(=O)N1CCC(NC(=O)CCc2ccccc2)CC1`, the kinetic solubility was over 45.7 µg/mL.

Compound `CCN(CC)CCNC(=O)c1ccc(N)cc1.Cl` yielded a kinetic solubility of over 40.8 µg/mL.

In turn, `O=C(c1ccc(NC(=S)NCc2ccco2)cc1)N1CCOCC1` yielded a kinetic solubility of 41.6 µg/mL (≈ 120 µM).

`COc1ccc2c(c1)c(C(C)=O)c(C)n2Cc1ccco1` came in with a solubility (kinetic) of 36.7 µg/mL (≈ 130 µM).

In the case of `CC(=O)Nc1ccc(C(=O)NCCCSc2ccccc2)cc1`, the kinetic solubility is 5.3 µg/mL (≈ 16.1 µM).

In turn, `C=CCn1c(=O)c(C(=O)NCc2ccc3c(c2)OCO3)c(O)c2ccccc21` showed a solubility (kinetic) of 1.3 µg/mL (≈ 3.44 µM).

Compound `Cc1ccc(S(=O)(=O)NCC(=O)OCC(=O)N2CC(C)OC(C)C2)cc1` (configuration not stated) had a solubility (kinetic) of over 57.7 µg/mL.

Compound `Nc1ccc(Cl)c(S(=O)(=O)Nc2ccccc2Cl)c1` registered a solubility (kinetic) of over 47.6 µg/mL.

`O=C(c1ccccc1[N+](=O)[O-])N1CCC2(CC1)OCCO2` had a kinetic solubility of over 43.8 µg/mL.

`CCOC(=O)Nc1ccc2c(c1)nc1n2CCN(CCOC)C1` displayed a solubility (kinetic) of over 47.8 µg/mL.

For `CC(=O)c1cccc(NC(=O)CN2C(=O)NC(C)(C)C2=O)c1`, the solubility (kinetic) is over 45.5 µg/mL.

With `CC(Cc1cccs1)NCc1ccccc1` (configuration not stated), the kinetic solubility is 22.3 µg/mL (≈ 96.4 µM).

In turn, `CCOC(=O)c1cc(NC(=O)c2cccs2)ccc1N1CCOCC1` displayed a kinetic solubility of 14.8 µg/mL (≈ 41.1 µM). This solubility kinetic lies about 1.5-fold lower than the previous one.

For `CCn1c(SCC(=O)OC(C)C)nnc1-c1ccccc1OC`, the kinetic solubility was over 50.3 µg/mL.

For the compound `Cc1ccc2[nH]c(CSc3ccccc3)cc(=O)c2c1`, the solubility (kinetic) turned out to be 14.9 µg/mL (≈ 53 µM).

`COCCNC(=O)/C(C#N)=C/c1ccc(C(=O)O)cc1` gave a solubility (kinetic) of over 41.1 µg/mL.

The compound `Cc1ccc(-n2c(C)nn(CC#N)c2=O)cc1` came in with a kinetic solubility of over 34.2 µg/mL.

`COc1ccc(C(=O)c2nc3ccccc3n2C(C)C)cc1OC` showed a solubility (kinetic) of 46.1 µg/mL (≈ 142 µM).

`O=C(COC(=O)COc1cc(Cl)c(Cl)cc1Cl)NC1CC1` displayed a solubility (kinetic) of 23.6 µg/mL (≈ 66.9 µM).

In the case of `CCc1ccc(-n2c([O-])c(C(C)=O)c(=O)[nH]c2=O)cc1.C[NH+](C)C`, the solubility (kinetic) was found to be 38.5 µg/mL. This solubility kinetic is about 1.6-fold higher than that of the compound before.

In turn, `CCC(Oc1ccccc1)C(=O)NCCCN1CCOCC1` (configuration not stated) came in with a solubility (kinetic) of over 46 µg/mL.

In turn, `O=C(CCN1C(=O)C2C3CCC(C3)C2C1=O)OCC(=O)c1ccc(Cl)cc1` (configuration not stated) displayed a kinetic solubility of over 58.5 µg/mL.

In the case of `CCCN1C2CCCC1CC(NC(=O)c1cccc([N+](=O)[O-])c1)C2` (configuration not stated), the solubility (kinetic) was over 49.7 µg/mL.

`Cc1cc(-c2ccccc2)nc2c(Br)c(=O)[nH]n12`: the solubility (kinetic) is over 45.6 µg/mL.

`CN(C)CC1CCCCC1=O.Cl` (configuration not stated) returned a solubility (kinetic) of over 28.8 µg/mL.

`O=C1c2ccccc2C2(c3cc(C(F)(F)F)cc(C(F)(F)F)c3)NCCN12` (configuration not stated) showed a solubility (kinetic) of 55.9 µg/mL (≈ 145 µM).

Compound `COc1ccccc1CNC(=O)COC(=O)Cc1ccc(Br)cc1` yielded a kinetic solubility of 13.7 µg/mL (≈ 34.9 µM).

`O=C(CCc1ccccc1)Nc1nccs1` had a solubility (kinetic) of 17.9 µg/mL (≈ 77.1 µM).

In turn, `CCCc1ccc(C(C)NC(=S)NC2CCCCC2)cc1` (configuration not stated) returned a kinetic solubility of 1.2 µg/mL (≈ 3.94 µM).

The compound `O=[N+]([O-])c1ccc2nc(C3CCCCC3)[nH]c2c1` gave a solubility (kinetic) of 31.5 µg/mL (≈ 128 µM).

`CN(C)/C=C/C(=O)c1ccccc1` gave a kinetic solubility of over 26.3 µg/mL.

Compound `CC(=O)Nc1ccc(S(=O)(=O)N(C#N)c2nc(C)cc(C)n2)cc1` gave a solubility (kinetic) of over 51.8 µg/mL.

Regarding `COc1ccc(Cl)cc1NC(=O)Cn1c(=O)oc2ccccc21`, the kinetic solubility stood at 1.2 µg/mL (≈ 3.61 µM).

For the compound `CCOC(=O)c1cc2sccc2n1CC(=O)C(C)(C)C`, the kinetic solubility is under 0.6 µg/mL.

Regarding `CN(C)c1nc(-c2cccs2)cc(C(F)(F)F)c1C#N`, the solubility (kinetic) is 0.3 µg/mL (≈ 1.01 µM).

In turn, `CN(C)C(Cc1ccccc1)C(=O)c1c[nH]c2ccccc12.Cl` (configuration not stated) gave a kinetic solubility of over 49.3 µg/mL.

For `C/C(Cl)=C\Cn1c(N2CCCC2)nc2c1c(=O)n(C)c(=O)n2C`, the solubility (kinetic) stood at 40.9 µg/mL (≈ 121 µM).

`Cc1ccccc1-c1nc(C#N)c(N2CCC(C)CC2)o1`: the solubility (kinetic) is under 0.2 µg/mL.

`COc1cccc(C(=O)CC(C#N)c2ccc(F)cc2)c1` (configuration not stated): the solubility (kinetic) is 16 µg/mL (≈ 56.5 µM).

Turning to `CC(=O)Nc1ccc(C(=O)NCCCOC(C)C)cc1`, the kinetic solubility was 39.6 µg/mL (≈ 142 µM).

For `CN1c2ccc(Cl)cc2C(=O)NC1C1CC=CCC1` (configuration not stated), the solubility (kinetic) was 3.4 µg/mL (≈ 12.3 µM). This solubility kinetic lies about 12-fold lower than the previous one.

In turn, `CC(=O)c1c(C)[nH]c(C(=O)OCc2ccc([N+](=O)[O-])cc2)c1C` returned a solubility (kinetic) of 2.1 µg/mL (≈ 6.64 µM).
